This note sets out measurements from ChEMBL document CHEMBL4483862, “Open-source discovery of chemical leads for next-generation chemoprotective antimalarials” (2018).

For the assay, the system named is Plasmodium berghei. Briefly: Luciferase/luciferin-expressing antifolate-resistant parasites were used to infect a culture of HepG2 cells that were pre-incubated with compounds. Infected hepatocytes emit light due to the luciferase reaction. Assay results are presented as the percent inhibition of light emission compared to control. […]. Format: functional. To be noted: sporozoite; for IC90: read-out: LUCIFERASE INFECTION ASSAY - IC90.

As a reminder, the IC50 is the concentration that inhibits the measured activity by half. By IC90 is commonly meant the concentration at which the effect reaches the 90% level. Take `CCC(=O)Nc1nc(C)c(-c2csc(Nc3ccc(N(C)C)cc3)n2)s1`: the IC90 was > 8.52 µM. The half-maximal inhibitory concentration (IC50) (FFLUC_HILL_SLOPE 5.2, FFLUC_R_SQUARED 0.393, read-out: LUCIFERASE INFECTION ASSAY - IC50) was > 8.52 µM.

On to `Cc1ccc(S(=O)(=O)N(Cc2ccccc2Cl)c2ccc(Br)cc2C(=O)c2ccccc2)cc1`, for which the IC90 was > 5.95 µM. Also, for the setting “FFLUC_HILL_SLOPE 4.75, FFLUC_R_SQUARED 0.66, PBLUC_HILL_SLOPE 8.83, PBLUC_R_SQUARED 0.156, read-out: LUCIFERASE INFECTION ASSAY - IC50”, the IC50 was found to be 5.41 µM.

As to `Clc1cccc(-c2cn3c(-c4ccncc4)cnc3cn2)c1`, the IC90 is > 10.8 µM. Also, the half-maximal inhibitory concentration (IC50) (FFLUC_HILL_SLOPE 4.91, FFLUC_R_SQUARED 0.112, HEPG2TOX_HILL_SLOPE 0.251, HEPG2TOX_R_SQUARED 0.199, PBLUC_HILL_SLOPE 3.54, PBLUC_R_SQUARED 0.544, read-out: LUCIFERASE INFECTION ASSAY - IC50) was 6.34 µM.

For `COc1cc(/C=C(/C(=O)Nc2ccc(Cl)cc2)c2nc3ccccc3s2)ccc1OC(F)F`, the IC90 is 3.33 µM. Also, the IC50 (FFLUC_HILL_SLOPE 4.93, FFLUC_R_SQUARED 0.384, HEPG2TOX_HILL_SLOPE 14.8, HEPG2TOX_R_SQUARED 0.909, PBLUC_HILL_SLOPE 5.39, PBLUC_R_SQUARED 0.576, read-out: LUCIFERASE INFECTION ASSAY - IC50) came out at 2.21 µM.

For `COCCNc1nc2cnc(-c3ccc4ccccc4c3)cc2n1C`, the IC90 was > 10 µM. The IC50 (FFLUC_HILL_SLOPE 5.54, FFLUC_R_SQUARED 0.844, PBLUC_HILL_SLOPE 0.43, PBLUC_R_SQUARED 0.895, read-out: LUCIFERASE INFECTION ASSAY - IC50) was 0.13 µM.

As to `Cc1ccc(-c2oc(NC(=O)c3cncc(Br)c3)c(C#N)c2-c2ccc(C)cc2)cc1`, the IC90 came out at 9.82 µM. Besides, the concentration for half-maximal inhibition (IC50) (FFLUC_HILL_SLOPE 4.83, FFLUC_R_SQUARED 0.721, HEPG2TOX_HILL_SLOPE 9.42, HEPG2TOX_R_SQUARED 0.907, PBLUC_HILL_SLOPE 30.3, PBLUC_R_SQUARED 0.463, read-out: LUCIFERASE INFECTION ASSAY - IC50) was found to be 9.13 µM.

Turning to `O=C(CSc1ccccc1C(=O)N(Cc1ccco1)Cc1cccs1)NC12CC3CC(CC(C3)C1)C2`, the IC90 turned out to be 7.68 µM. Also, the IC50 (FFLUC_HILL_SLOPE 5.22, FFLUC_R_SQUARED 0.381, HEPG2TOX_HILL_SLOPE 38.7, HEPG2TOX_R_SQUARED 0.813, PBLUC_HILL_SLOPE 3.47, PBLUC_R_SQUARED 0.525, read-out: LUCIFERASE INFECTION ASSAY - IC50) is 4.08 µM.

As to `COC(=O)c1cc(CSc2nnc(-c3ccc(C)cc3)c(-c3ccc(C)cc3)n2)oc1C`, the IC90 is > 10 µM. Also, where the note is “FFLUC_HILL_SLOPE 4.52, FFLUC_R_SQUARED 0.588, read-out: LUCIFERASE INFECTION ASSAY - IC50”, the IC50 is > 10 µM.

With `FC(F)(F)c1cnc(-n2cccc2/C=N/Nc2nc3ccccc3nc2C(F)(F)F)c(Cl)c1`, the IC90 is > 6.81 µM. The IC50 (FFLUC_HILL_SLOPE 4.66, FFLUC_R_SQUARED 0.46, HEPG2TOX_HILL_SLOPE 16.5, HEPG2TOX_R_SQUARED 0.459, PBLUC_HILL_SLOPE 3.99, PBLUC_R_SQUARED 0.83, read-out: LUCIFERASE INFECTION ASSAY - IC50) was 4.16 µM.

In the case of `NS(=O)(=O)c1ccc(CCNc2nc(-c3ccc(Cl)cc3)nc3sc4c(c23)CCC4)cc1`, the IC90 is > 10 µM. For the same compound, for the setting “FFLUC_HILL_SLOPE 5.22, FFLUC_R_SQUARED 0.196, PBLUC_HILL_SLOPE 2.11, PBLUC_R_SQUARED 0.629, read-out: LUCIFERASE INFECTION ASSAY - IC50”, the IC50 was found to be 7.12 µM.

On to `COC(=O)c1ccccc1N1C(=O)C=CC1=O`, for which the 90% effect concentration (IC90) was 5.93 µM. Further, for the setting “FFLUC_HILL_SLOPE 4.6, FFLUC_R_SQUARED 0.0459, HEPG2TOX_HILL_SLOPE 7.42, HEPG2TOX_R_SQUARED 0.806, PBLUC_HILL_SLOPE 7.78, PBLUC_R_SQUARED 0.766, read-out: LUCIFERASE INFECTION ASSAY - IC50”, the IC50 came to 4.47 µM.

In the case of `CNc1nc2cnc(-c3cccc(Oc4ccccc4)c3)cc2n1-c1cccc(F)c1`, the IC90 is > 10 µM. Besides, the IC50 (FFLUC_HILL_SLOPE 5.28, FFLUC_R_SQUARED 0.776, PBLUC_HILL_SLOPE 4.98, PBLUC_R_SQUARED 0.188, read-out: LUCIFERASE INFECTION ASSAY - IC50) was 8.03 µM.

On to `O=C(Nc1cc(S(=O)(=O)N2CCCC2)ccc1O)c1sccc1-n1cccc1`, for which the IC90 came to 3.25 µM. The IC50 (FFLUC_HILL_SLOPE 4.58, FFLUC_R_SQUARED 0.706, PBLUC_HILL_SLOPE 1.57, PBLUC_R_SQUARED 0.879, read-out: LUCIFERASE INFECTION ASSAY - IC50) was 0.802 µM.

On to `Cc1onc(-c2c(Cl)cccc2Cl)c1C(=O)Nc1ccccc1SCc1noc(-c2cccs2)n1`, for which the IC90 was > 6.07 µM. For the same compound, the IC50 (FFLUC_HILL_SLOPE 4.47, FFLUC_R_SQUARED 0.309, read-out: LUCIFERASE INFECTION ASSAY - IC50) was > 6.07 µM.

Regarding `O=[N+]([O-])c1cc2c(c(Cn3c(COc4ccc(Cl)cc4Cl)nc4ccccc43)c1)OCOC2`, the IC90 stood at 7.34 µM. Further, the IC50 (FFLUC_HILL_SLOPE 4.75, FFLUC_R_SQUARED 0.0792, PBLUC_HILL_SLOPE 3.98, PBLUC_R_SQUARED 0.767, read-out: LUCIFERASE INFECTION ASSAY - IC50) was found to be 4.23 µM.

For the compound `N#C/C(=C\Nc1cc(C(F)(F)F)cc(C(F)(F)F)c1)S(=O)(=O)c1ccccc1Cl`, the IC90 was > 7.26 µM. Also, the IC50 (FFLUC_HILL_SLOPE 5.48, FFLUC_R_SQUARED 0.621, HEPG2TOX_HILL_SLOPE 2.18, HEPG2TOX_R_SQUARED 0.937, read-out: LUCIFERASE INFECTION ASSAY - IC50) was > 7.26 µM.

Take `Cc1noc(C)c1NC(=O)Nc1cc(C(F)(F)F)cc(C(F)(F)F)c1`: the IC90 is > 8.99 µM. The IC50 (FFLUC_HILL_SLOPE 4.67, FFLUC_R_SQUARED 0.129, HEPG2TOX_HILL_SLOPE 8.81, HEPG2TOX_R_SQUARED 0.655, PBLUC_HILL_SLOPE 1.82, PBLUC_R_SQUARED 0.142, read-out: LUCIFERASE INFECTION ASSAY - IC50) was determined as 4.81 µM.

Take `CC(C)(C)c1ccc(C2NCC(c3ccc(Cl)cc3Cl)c3c2[nH]c2ccccc32)cc1` (centres undefined): the IC90 is 4.09 µM. Moreover, the IC50 (FFLUC_HILL_SLOPE 4.79, FFLUC_R_SQUARED 0.608, HEPG2TOX_HILL_SLOPE 0.722, HEPG2TOX_R_SQUARED 0.602, PBLUC_HILL_SLOPE 10.9, PBLUC_R_SQUARED 0.683, read-out: LUCIFERASE INFECTION ASSAY - IC50) was 3.34 µM.

In the case of `COc1ccc(CCNc2nc(CN3CCCC3)nc3sc(C)c(C)c23)cc1`, the concentration for an effect of 90% (IC90) is > 10 µM. In addition, the concentration for half-maximal inhibition (IC50) (FFLUC_HILL_SLOPE 4.5, FFLUC_R_SQUARED 0.668, PBLUC_HILL_SLOPE 16.9, PBLUC_R_SQUARED 0.0613, read-out: LUCIFERASE INFECTION ASSAY - IC50) worked out at 9.78 µM.

As for `Cc1cc(C(C)(C)C)cc(S(=O)(=O)Nc2ccc(C(=O)OC(C)C(=O)c3cc(C)n(-c4ccccc4)c3C)cc2)c1C` (centres undefined), the IC90 is > 10 µM. For the same compound, the IC50 (FFLUC_HILL_SLOPE 4.56, FFLUC_R_SQUARED 0.633, PBLUC_HILL_SLOPE 9.36, PBLUC_R_SQUARED 0.441, read-out: LUCIFERASE INFECTION ASSAY - IC50) was 8.93 µM.

For the compound `CSc1sc(C#N)c2c1/C(=N/OC(=O)c1ccc(Cl)cc1)CCC2`, the IC90 was > 8.76 µM. Further, the IC50 (FFLUC_HILL_SLOPE 4.66, FFLUC_R_SQUARED 0.795, read-out: LUCIFERASE INFECTION ASSAY - IC50) is > 8.76 µM.

For the compound `O=S(=O)(Nc1ccc(OC(F)(F)F)cc1)c1ccc(S(=O)(=O)c2ncc(C(F)(F)F)cc2Cl)s1`, the IC90 was > 5.82 µM. The IC50 (FFLUC_HILL_SLOPE 4.61, FFLUC_R_SQUARED 0.168, read-out: LUCIFERASE INFECTION ASSAY - IC50) is > 5.82 µM.

Regarding `COc1ccc2c(c1)c(CC(=O)Nc1cccc(S(=O)(=O)N3CCCC3)c1)c(C)n2C(=O)c1ccc(Cl)cc1`, the IC90 was > 10 µM. Where the note is “FFLUC_HILL_SLOPE 4.55, FFLUC_R_SQUARED 0.0972, read-out: LUCIFERASE INFECTION ASSAY - IC50”, the IC50 was > 10 µM.

Take `CC(C)NC(=O)c1c(NC(=O)c2ccc(C(F)(F)F)cc2)nc2ccccn12`: the IC90 amounted to 1.46 µM. Moreover, the IC50 (FFLUC_HILL_SLOPE 4.65, FFLUC_R_SQUARED 0.42, HEPG2TOX_HILL_SLOPE 0.706, HEPG2TOX_R_SQUARED 0.931, PBLUC_HILL_SLOPE 2.98, PBLUC_R_SQUARED 0.635, read-out: LUCIFERASE INFECTION ASSAY - IC50) was 0.698 µM.

`Cc1cc(O)c(C(=O)/C=C/c2cn(-c3ccccc3C)nc2-c2ccccc2)c(=O)o1`: the IC90 is > 10 µM. For the same compound, the IC50 (FFLUC_HILL_SLOPE 4.53, FFLUC_R_SQUARED 0.503, PBLUC_HILL_SLOPE 0.894, PBLUC_R_SQUARED 0.655, read-out: LUCIFERASE INFECTION ASSAY - IC50) came out at 6.09 µM.

With `Cc1c(-c2nc3ccccc3[nH]2)c(NC(=O)C(C)C)n(Cc2ccccc2)c1C`, the IC90 was determined as 5.02 µM. Also, the IC50 (FFLUC_HILL_SLOPE 4.87, FFLUC_R_SQUARED 0.116, PBLUC_HILL_SLOPE 2.35, PBLUC_R_SQUARED 0.356, read-out: LUCIFERASE INFECTION ASSAY - IC50) was 1.97 µM.

Consider `Cc1ccc(-c2nc(NC(=O)c3ccc4c(=O)[nH]c(=O)n(C)c4n3)sc2-c2ccc(C)cc2)cc1`, for which the IC90 stood at 4.58 µM. Besides, for the setting “FFLUC_HILL_SLOPE 5.14, FFLUC_R_SQUARED 0.303, PBLUC_HILL_SLOPE 8.87, PBLUC_R_SQUARED 0.194, read-out: LUCIFERASE INFECTION ASSAY - IC50”, the IC50 is 3.57 µM.
